# pIC50: −log10 of the molar value.
# Molecular target: ATX (human His-tagged) (Homo sapiens (Human), UniProt Q13822)
# Test: Human ATX enzyme inhibition assay (fluorescence quenching, MR121 substrate)
# Format: biochemical
# Details: inhibitory activity against ATX; 30 nM ATX, 1 μM MR121 substrate, 30° C.
# Procedure: Human ATX Enzyme Inhibition Assay
# ATX inhibition was measured by a fluorescence quenching assay using a specifically labeled substrate analogue (MR121 substrate). To obtain this MR121 substrate, BOC and TBS protected 6-amino-hexanoic acid (R)-3-({2-[3-(2-{2-[2-(2-amino-ethoxy)-ethoxy]-ethoxy}-ethoxy)-propionylamino]-ethoxy}-hydroxy-phosphoryloxy)-2-hydroxy-propyl ester (Ferguson et al., Org Lett 2006, 8 (10), 2023) was labeled with MR121 fluorophore (CAS 185308-24-1, 1-(3-carboxypropyl)-11-ethyl-1,2,3,4,8,9,10,11-octahydro-dipyrido[3,2-b:2′,3′-i]phenoxazin-13-ium) on the free amine of the ethanolamine side and then, after deprotection, subsequently with tryptophan on the side of the aminohexanoic acid.
# Assay working solutions were made as follows:
# Assay buffer (50 mM Tris-HCl, 140 mM NaCl, 5 mM KCl, 1 mM CaCl2, 1 mM MgCl2, 0.01% Triton-X-100, pH 8.0;
# ATX solution: ATX (human His-tagged) stock solution (1.08 mg/mL in 20 mM bicine, pH 8.5, 0.15 M NaCl, 10% glycerol, 0.3% CHAPS, 0.02% NaN3), diluted to 1.4-2.5× final concentration in assay buffer;
# MR121 substrate solution: MR121 substrate stock solution (800 μM MR121 substrate in DMSO), diluted to 2-5× final concentration in assay buffer.
# Test compounds (10 mM stock in DMSO, 8 μL) were obtained in 384 well sample plates (Corning Costar #3655) and diluted with 8 μL DMSO. Row-wise serial dilutions were made by transferring 8 μL cpd solution to the next row up to […]. The compound and control solutions were mixed five times and 2 μL were transferred to 384 well assay plates (Corning Costar #3702). Then, 15 μL of 41.7 nM ATX solution was added (30 nM final concentration), mixed five times and then incubated for 15 minutes at 30° C. 10 μL of MR121 substrate solution was added (1 μM final concentration), mixed 30 times and then incubated for 15 minutes at 30° C. Fluorescence was then measured every 2 minutes for 1 hour (Perkin Elmer plate: vision multimode reader); light intensity: 2.5%; exp. time: 1.4 sec, Filter: Fluo_630/690 nm) and IC50 values were calculated from these readouts.
row,SMILES,pIC50
1,"O=C(OCc1ccc(F)cc1)N1CCc2cc(C(=O)N3CCc4[nH]nnc4C3)nn2CC1 [Example 28, 4-fluorobenzyl 2-(4,5,6,7-tetrahydro-1H-[1,2,3]triazolo[4,5-c]pyridine-5-carbonyl)-7,8-dihydro-4H-pyrazolo[1,5-d][1,4]diazepine-6(5H)-carboxylate]",7.12
2,"O=C(OCc1ccc(OC(F)(F)F)c(Cl)c1)N1CCc2cc(C(=O)N3CCc4[nH]nnc4C3)nn2CC1 [Example 37, 3-chloro-4-(trifluoromethoxy)benzyl 2-(4,5,6,7-tetrahydro-1H-[1,2,3]triazolo[4,5-c]pyridine-5-carbonyl)-7,8-dihydro-4H-pyrazolo[1,5-d][1,4]diazepine-6(5H)-carboxylate]",8.05
3,"CC(C)(C)c1cc(C#N)ccc1OCC(=O)N1CCc2cc(C(=O)N3CCc4[nH]nnc4C3)nn2CC1 [Example 17, 3-tert-Butyl-4-[2-oxo-2-[2-(1,4,6,7-tetrahydrotriazolo[4,5-c]pyridine-5-carbonyl)-4,5,7,8-tetrahydropyrazolo[1,5-d][1,4]diazepin-6-yl]ethoxy]benzonitrile]",8.00
4,"Cc1cc(OC(F)(F)F)ccc1COC(=O)N1CCc2cc(C(=O)N3CCc4[nH]nnc4C3)nn2CC1 [Example 39, 2-methyl-4-(trifluoromethoxy)benzyl 2-(4,5,6,7-tetrahydro-1H-[1,2,3]triazolo[4,5-c]pyridine-5-carbonyl)-7,8-dihydro-4H-pyrazolo[1,5-d][1,4]diazepine-6(5H)-carboxylate]",7.85
5,"O=C(OCc1ccc(OC(F)(F)F)c(F)c1)N1CCc2nc(C(=O)N3CCc4[nH]nnc4C3)nn2CC1 [Example 36, [3-fluoro-4-(trifluoromethoxy)phenyl]methyl 2-(1,4,6,7-tetrahydrotriazolo[4,5-c]pyridine-5-carbonyl)-5,6,8,9-tetrahydro-[1,2,4]triazolo[1,5-d][1,4]diazepine-7-carboxylate]",8.22

# — patent US10669285B2, “Condensed [1,4] diazepine compounds as autotaxin (ATX) and lysophosphatidic acid (LPA) production inhibitors” (Hoffmann-La Roche Inc., priority 2014, dated 2020)
